Measured values taken from article PMC12495412, “Coumarin/nitrogen-bearing heterocyclic hybrid-loaded electrospun PMMA/PVP nanofibrous scaffolds for accelerating topical wound healing rates: synthesis and in vitro bio-evaluation” (RSC Advances, 2025).
≈ marks a conversion by molar mass, not a printed value. Marks after values point to notes of the source that are not given here.

Experiments:
all applied pathogens = test: Agar-well diffusion of synthesized compounds, whole panel; type: cell-based
Excerpt: The antimicrobial activity of the prepared compounds was estimated through an agar-well diffusion method as adapted from the modified Kirby–Bauer protocol.[24] In this test, microbial pathogens were applied, including Staphylococcus aureus ATCC 25923 (S. aureus), Streptococcus mutans ATCC 25175 (S. mutans), Bacillus cereus ATCC 19637 (B. cereus), Bacillus aureus ATCC 25923 (B. aureus), Bacillus epidermidis ATCC 14990 (B. epidermidis), and Bacillus subtilis ATCC 11774 (B. subtilis) as Gram-positive bacteria, and Pseudomonas aeruginosa ATCC 27853 (P. aeruginosa), Klebsiella pneumonia ATCC 13883 (K. pneumonia), and Salmonella typhimurium ATCC 14028 (S. typhimurium), Salmonella pneumoniae ATCC 10031(S. pneumoniae), Escherichia coli ATCC 10536 (E. coli), and Salmonella paratyphi ATCC 9150 (S. paratyphi) as Gram-negative bacteria. Additionally, Candida albicans (ATCC 10231), Candida krusei ATCC 6258 (C. krusei), Candida glabrata ATCC 66032 (C. glabrata), andCandida parapsilosis ATCC 22019 (C. parapsilosis) were applied as models of unicellular fungi. The pre-inoculation cultures of the pathogens were prepared on Muller–Hinton broth and cultivated for 24 h at 37 °C. The agar-well test was prepared on Muller–Hinton agar with 100 μL of each pathogen pre-culture (0.5 McFarland conc.) and uniformly distributed on the plate surface. Under aseptic conditions, six wells were created on the agar surface using a sterile corkborer (9 mm). To each well, 100 μL of the prepared compound (10 mg mL^−1) was separately inserted into each plate. All plates were incubated for 24 h at 37 °C; the established inhibition zones (Halo-zones) surrounding the wells indicated positive antimicrobial activity and were stated as the radius of the inhibition zone (mm).

A549 cells [1] = test: Wound healing scratch (anti-migration) assay; type: cell-based, human; conditions: IC50 doses, 48 h
Procedure: To assess the anti-migration inhibition capability of newly synthesized derivatives, a wound healing technique was employed. A549 cells were planted in 12-well plates and kept alive at 37 °C until they achieved 80–90% fluency. The cell monolayers were smashed with a sterile tip and exposed to the prepared derivatives at IC50 doses. At 0 and 48 h of treatment, the wound closure area was captured and calculated by imaging analysis with the Cell-Sens software (Olympus, Japan).

Caco-2 cells = test: MTT anticancer assay; type: cell-based; conditions: for SI Caco-2: IC50 Wi-38 / IC50 Caco-2
Excerpt: (§1) MTT assay: the normal cell line (Wi-38), colon cancer (Caco-2), lung cancer (A549), and breast cancer (MDA) cell lines were sourced from ATCC, USA. All different cell lines were cultivated and preserved in DMEM medium (SERANA, Germany), accompanied by 10% FBS (Gibco, USA) and 1% Pen/Strep solution (Lonza, USA). The newly prepared derivatives at various doses were considered for their anticancer activity and their safety on normal cells, applying MTT (3-[4, 5-dimethylthiazol]-2, 5-diphenyltetrazolium bromide) methods.[22] At first, all normal and cancer cell lines (1.0 ×10^4) were inoculated in 4 antiseptic 96-well tissue culture microplates and incubated for 24 h in a CO2 incubator. After cell attachments, the prepared derivatives were added to both normal Wi-38 cells at diverse concentrations of (6.25–200 μg mL^−1, 2-fold) and cancer cells at different concentrations of (3.125–100 μg mL^−1, 2-fold) in triplicate and incubated for another 48 h at 37 °C in a CO2 incubator with an adjusted concentration of 5%. After that, the treated cells were cleaned three times with PBS to remove debris and dead cells. Next, 200 μL of 0.5 mg mL^−1 MTT dye solution in PBS was mixed in each well, and the cells were further kept for 3 h at 37 °C in a 5% CO2 incubator. After that, MTT was removed and 200 μL of DMSO was added to each well. The optical density (OD) was recorded at 570 nm via a microplate reader (B.M.G. LabTech, Germany). Basic cells (untreated) were utilized as negative control cells, and 5-fluorouracil (5-FU) was included as a standard chemotherapy drug. The qualified cell viability (%) was evaluated as in equation (eqn (1)):1 Relative cell viability (%) = […] A1 is the OD of the examined derivative, A0 is the OD of the standard, and AU is the OD of the untreated cells.
(§2) Anticancer activity assay: the anticancer effect of each derivative was assessed by evaluating the half-maximal inhibitory concentration (IC50) value via the GraphPad Prism 7.0 software. However, SI (selective index) values of each derivative were estimated by splitting the IC50 value of healthy cells by the IC50 value of malignant cells, as previously reported.[23] The effects of the created derivatives on the morphology of MDA cells were evaluated at IC50 doses and captured by phase-contrast microscopy (Olympus, Germany) in comparison to untreated control cells.

A549 cells [2] = test: MTT anticancer assay; type: cell-based, human; conditions: 48 h
Excerpt: as §1, §2

MDA cells = test: MTT anticancer assay; type: cell-based, human; conditions: 48 h
Excerpt: as §1, §2

Wi-38 cells = test: MTT cytotoxicity assay, normal cells; type: cell-based; conditions: 48 h
Excerpt: as §1, §2

[3] = tested on: multidrug-resistant human pathogens; test: Agar-well diffusion of formulations, whole panel; type: cell-based; conditions: all human pathogens investigated
Procedure: (§3) The antimicrobial qualities of formulations were evaluated in this study using a variety of techniques. The formulations including 8 PMMA and 2 PVP, which contained varying doses of drug A (0.5% = T1, 1% = T2, 3% = T3, and 5% = T4) or drug B (0.5% = T5, 1% = T6, 3% = T7, and 5% = T8), as well as a combination of 2.5% of drug A and 2.5% of drug B (T9) were assessed. The tested human pathogens were cultivated in a nutritional broth medium containing 0.5% peptone, 0.3% yeast extract, 0.2% beef extract, 0.1% glucose, and 0.5% NaCl in accordance with 0.5 McFarland turbidity criteria.[25] To carry out the agar-well diffusion analysis, microbial cultures (100 μL) were spread on nutrient agar plates using sterile cotton swabs. After drilling each well with a sterile cork-borer of 5 mm in diameter, 50 μL of the tested formulations and the control (composed of 8 PMMA and 2 PVP) were loaded. Agar plates were thereafter left to incubate at 37 °C for an entire day. The inhibitory zone that surrounds each well was measured in millimeters (mm) using a ruler.[26]

Candida albicans [4] = test: Biofilm inhibition test (spectrophotometric); type: cell-based; conditions: 24 h, 37 °C, OD vs untreated
Procedure: (§4) Additionally, a spectrophotometric antibiofilm assay was utilized to determine whether the evaluated formulations might inhibit the growth of pathogens. Fresh nutritional broth was inoculated with each pathogen separately, and this mixture was then incubated at 37 °C at 200 rpm. The optical density (OD) at 600 nm was measured over a 6 h incubation period, allowing for an estimation of the starting microbe's exponential phase (3 × 10^7 CFU mL^−1). To produce treated cultures, 900 μL of planktonic cultures were collected aseptically with 100 μL of each formulation. Furthermore, untreated (formula-free) cultures of pathogens were grown as controls. The cultures were then incubated for 24 hours at 200 rpm and 37 °C. Through spectroscopic evaluation of microbial turbidity, the inhibitory effects of the examined formulations were determined.[27] By comparing the OD of the treated sample with the matching controls, anti-biofilm percentages for each formula were computed.[28]

Pseudomonas aeruginosa [5] = test: Biofilm inhibition test (spectrophotometric); type: cell-based; conditions: 24 h, 37 °C, OD vs untreated
Procedure: as §4

Klebsiella pneumoniae [6] = test: Biofilm inhibition test (spectrophotometric); type: cell-based; conditions: 24 h, 37 °C, OD vs untreated
Procedure: as §4

Bacillus cereus [7] = test: Biofilm inhibition test (spectrophotometric); type: cell-based; conditions: 24 h, 37 °C, OD vs untreated
Procedure: as §4

Candida parapsilosis [8] = test: Biofilm inhibition test (spectrophotometric); type: cell-based; conditions: 24 h, 37 °C, OD vs untreated
Procedure: as §4

Candida krusei [9] = test: Biofilm inhibition test (spectrophotometric); type: cell-based; conditions: 24 h, 37 °C, OD vs untreated
Procedure: as §4

[10] = tested on: Staphylococcus epidermidis; test: Biofilm inhibition test (spectrophotometric); type: cell-based; conditions: 24 h, 37 °C, OD vs untreated
Procedure: as §4

Staphylococcus aureus [11] = test: Biofilm inhibition test (spectrophotometric); type: cell-based; conditions: 24 h, 37 °C, OD vs untreated
Procedure: as §4

Bacillus subtilis [12] = test: Biofilm inhibition test (spectrophotometric); type: cell-based; conditions: 24 h, 37 °C, OD vs untreated
Procedure: as §4

Salmonella paratyphi [13] = test: Biofilm inhibition test (spectrophotometric); type: cell-based; conditions: 24 h, 37 °C, OD vs untreated
Procedure: as §4

Candida glabrata [14] = test: Biofilm inhibition test (spectrophotometric); type: cell-based; conditions: 24 h, 37 °C, OD vs untreated
Procedure: as §4

Escherichia coli [15] = test: Biofilm inhibition test (spectrophotometric); type: cell-based; conditions: 24 h, 37 °C, OD vs untreated
Procedure: as §4

Candida albicans [16] = test: Agar-well diffusion of formulations; type: cell-based; conditions: 50 μL per 5 mm well, 37 °C
Procedure: as §3

Pseudomonas aeruginosa [17] = test: Agar-well diffusion of formulations; type: cell-based; conditions: 50 μL per 5 mm well, 37 °C
Procedure: as §3

Klebsiella pneumoniae [18] = test: Agar-well diffusion of formulations; type: cell-based; conditions: 50 μL per 5 mm well, 37 °C
Procedure: as §3

Bacillus cereus [19] = test: Agar-well diffusion of formulations; type: cell-based; conditions: 50 μL per 5 mm well, 37 °C
Procedure: as §3

Candida parapsilosis [20] = test: Agar-well diffusion of formulations; type: cell-based; conditions: 50 μL per 5 mm well, 37 °C
Procedure: as §3

Candida krusei [21] = test: Agar-well diffusion of formulations; type: cell-based; conditions: 50 μL per 5 mm well, 37 °C
Procedure: as §3

[22] = tested on: Staphylococcus epidermidis; test: Agar-well diffusion of formulations; type: cell-based; conditions: 50 μL per 5 mm well, 37 °C
Procedure: as §3

Staphylococcus aureus [23] = test: Agar-well diffusion of formulations; type: cell-based; conditions: 50 μL per 5 mm well, 37 °C
Procedure: as §3

Bacillus subtilis [24] = test: Agar-well diffusion of formulations; type: cell-based; conditions: 50 μL per 5 mm well, 37 °C
Procedure: as §3

Salmonella paratyphi [25] = test: Agar-well diffusion of formulations; type: cell-based; conditions: 50 μL per 5 mm well, 37 °C
Procedure: as §3

Candida glabrata [26] = test: Agar-well diffusion of formulations; type: cell-based; conditions: 50 μL per 5 mm well, 37 °C
Procedure: as §3

Escherichia coli [27] = test: Agar-well diffusion of formulations; type: cell-based; conditions: 50 μL per 5 mm well, 37 °C
Procedure: as §3

Which “Antimicrobial activity” value (all applied pathogens) does the source give for `O=C(Nc1ccc(Nc2c3ccccc3nc3ccccc23)cc1)c1cc2ccccc2oc1=O` [Compound B, N-(4-(acridin-9-ylamino)phenyl)-2-oxo-2H-chromene-3-carboxamide] here?
The value was “no antimicrobial activity”.

What about the Migration inhibition (A549 cells [1]) of the same molecule?
The Migration inhibition was 87.21%.

What about the IC50 (Caco-2 cells; Homo sapiens, Caco-2, colon carcinoma cells, MTT, 48 h) of the same molecule?
Its IC50 is 4.87 ± 1.69 µg/mL (≈ 10.6 µM).

What about the “SI Caco-2” value (Caco-2 cells) of the same molecule?
Its value is 25.93 ± 2.25.

What about the IC50 (A549 cells [2]; Homo sapiens, A549, lung carcinoma cells) of the same molecule?
The IC50 was 6.98 ± 1.99 µg/mL (≈ 15.3 µM).

And the IC50 (MDA cells; Homo sapiens, Breast carcinoma cell)?
Its IC50 is 4.27 ± 0.46 µg/mL (≈ 9.33 µM).

What about the IC50 (Wi-38 cells; WI-38, normal human lung fibroblast cells) of the same molecule?
The IC50 was 126 ± 10.9 µg/mL (≈ 276 µM).

What does the source list for `Cc1ccc(-c2nnc(Nc3ccc(N)cc3)c3ccccc23)cc1` [Compound C1]?
SI Caco-2 (Caco-2 cells): 15.94 ± 1.39; IC50 Caco-2 (Caco-2 cells; colon carcinoma cells, MTT, 48 h): 12.09 ± 1.42 µg/mL (≈ 37 µM); IC50 A549 (A549 cells [2]; lung carcinoma cells): 21.01 ± 2.05 µg/mL (≈ 64.4 µM); IC50 MDA (MDA cells; breast carcinoma cells): 13.98 ± 0.57 µg/mL (≈ 42.8 µM); IC50 Wi-38 (Wi-38 cells; normal human lung fibroblast cells): 192.7 ± 16.79 µg/mL (≈ 590 µM)

Which results are given for `O=C(Nc1ccc(Nc2ccnc3cc(Cl)ccc23)cc1)c1cc2ccccc2oc1=O` [Compound C2]?
Antimicrobial effect [3]: neither C1 nor C2 controls have any effect; Biofilm reduction (Candida albicans [4]): 3.21 ± 0.99^i %; Biofilm reduction (Pseudomonas aeruginosa [5]): 3.65 ± 0.47^i %; Biofilm reduction (Klebsiella pneumoniae [6]): 2.03 ± 0.77^i %; Biofilm reduction (Bacillus cereus [7]): 10.32 ± 0.19^i %; Biofilm reduction (Candida parapsilosis [8]): 3.87 ± 0.14^i %; Biofilm reduction (Candida krusei [9]): 5.24 ± 1.22^i %; Biofilm reduction [10]: 8.29 ± 0.19^i %; Biofilm reduction (Staphylococcus aureus [11]): 11.31 ± 0.17^i %; Biofilm reduction (Bacillus subtilis [12]): 8.41 ± 0.31^i %; Biofilm reduction (Salmonella paratyphi [13]): 7.24 ± 0.38^i %; Biofilm reduction (Candida glabrata [14]): 6.48 ± 1.87^i %; Biofilm reduction (Escherichia coli [15]): 8.31 ± 0.75^i %; Inhibition zone diameters (Candida albicans [16]): 0 mm; Inhibition zone diameters (Pseudomonas aeruginosa [17]): 0 mm; Inhibition zone diameters (Klebsiella pneumoniae [18]): 0 mm; Inhibition zone diameters (Bacillus cereus [19]): 0 mm; Inhibition zone diameters (Candida parapsilosis [20]): 0 mm; Inhibition zone diameters (Candida krusei [21]): 0 mm; Inhibition zone diameters [22]: 0 mm; Inhibition zone diameters (Staphylococcus aureus [23]): 0 mm; Inhibition zone diameters (Bacillus subtilis [24]): 0 mm; Inhibition zone diameters (Salmonella paratyphi [25]): 0 mm; Inhibition zone diameters (Candida glabrata [26]): 0 mm; Inhibition zone diameters (Escherichia coli [27]): 0 mm
